The values that follow are results of earlier work, collected in patent US20160311746A1, “METHOD OF PRODUCING ADIPIC ACID OR AT LEAST A RESULTANT PRODUCT THEREOF” (BASF SE, priority 2013, published 2016).

For this series the following is noted: at about 47° C.

As to `O=C(O)/C=C\C=C/C(=O)O` [cis,cis-muconic acid], the solubility in water entry is listed as “about 1 g per 100 g of water”.
